The record followed here is patent US20250179047A1, “5-[7-(3,4-DIHYDRO-1H-ISOQUINOLINE-2-CARBONYL)-1,2,3,4 TETRAHYDROISOQUINOLIN-6-YL]-1H-PYRROLE-3-CARBOXAMIDE DERIVATIVES, PHARMACEUTICAL COMPOSITIONS CONTAINING THEM AND THEIR USES AS PRO-APOPTOTIC AGENTS” (LES LABORATOIRES SERVIER, priority 2022, published 2025).

One test has as its target BCL2 WT (Homo sapiens (Human), UniProt P10415). Briefly: TR-FRET competitive binding assay, BCL2 WT. The settings on record: Ki determined from IC50, read-out: TR_FRET EKI_Bcl2 WT. The protocol:
(§1) The relative binding potency of each compound was determined in a competitive binding assay using time resolved-fluorescence resonance energy transfer (TR-FRET). The method utilised a fluorescein labelled peptide derived from PUMA (5Flu-Ahx-[…]-NH2 wherein Ahx means 6-hexanoic acid monomer and the amino acid sequence is referred to as SEQ ID:01) which binds to a terbium labelled BCL2 or BCLXL protein. The degree of binding or corresponding compound inhibition can be quantified by the TR-FRET signal between the terbium donor and fluorescein acceptor.
(§2) The human BCL2_wild-type (also named BCL2_wt), BCL2_G101V mutant and BCLXL_wild-type were E. coli expressed as a N-terminal Halo-fusion proteins and singly labelled with Terbium on the Halo protein to afford the following amino acid sequences:
(§3) wherein the BCL2(1-207) sequence corresponds to UniProtKB® primary accession number P10415 and the BCLXL(2-196) sequence corresponds to UniProtKB® primary accession number Q07817-1.
(§4) The assay was performed in a 40 μL volume in white 384-standard well plates (Corning #3574). An 11-point serial dilution of each compound was prepared in DMSO and transferred directly to plate followed by addition of fluorescein labelled peptide and lastly protein. Final assay conditions were 0.5 nM BCL2_wt, BCL2_G101V, BCL2_D103Y, BCL2_F104I, BCL2_D111A or BCLXL_wt, 2 or 20 nM fluorescein labelled peptide, 50 mM Hepes pH 7.5, 150 mM NaCl, 0.5 mM TCEP (Tris(2-carboxyethyl)phosphine), 0.05% Tween 20, 5% DMSO. The mixture was incubated for 2 hours at 23° C.
(§5) TR-FRET measurements were performed on a Biotek Synergy Neo plate reader. TR-FRET was measured by excitation of the Terbium-donor at 340 nm and subsequent (delay time 100 μs) measurement of terbium and fluorescein emission at 495 nm and 520 nm, respectively, over a collection time of 300 μs. The TR-FRET signal was calculated as the emission-ratio at 520 nm over 495 nm.
(§6) The TR-FRET ratio readout for test compounds was normalized against 0% inhibition controls wells and 100% inhibition control wells. Test compound potency (IC50) was estimated by nonlinear regression using the sigmoidal dose-response (variable slope) using Xlfit 4 (IDBS, Guildford, Surrey, UK, model 205). Were the IC50 could not be determined the % inhibition at the highest tested concentration is given.
(§7) y=(A+((B−A)/(1+((C/x)^D))))
(§8) where y is the normalized TR-TRET ratio measurement for a given concentration of test compound, x is the concentration of test compound, A is the estimated efficacy (% inhibition) at infinite compound dilution, and B is the maximal efficacy (% inhibition). C is the IC50 value and D is the Hill slope coefficient.
(§9) The K1 values were determined from the IC50 values according to Cer et al, Nucleic Acids Res, 2009, July 1; 37 (WebServer issue): W441-W445.
In general terms: TR-FRET usually uses a lanthanide donor and a delayed reading to cut background.

Another test addresses BCL2 G101V (Homo sapiens, UniProt P10415, G101V). Briefly: TR-FRET competitive binding assay, BCL2 G101V. The settings on record: BCL2 G101V; Ki determined from IC50; read-out: TR_FRET EKI_Bcl2 G101V. The procedure: as §1, §2, §3, §4, §5, §6, §7, §8, §9
Another test has as its target BCL2 D103Y (Homo sapiens, UniProt P10415, D103Y). Briefly: TR-FRET competitive binding assay, BCL2 D103Y. The conditions noted are these: Ki determined from IC50, read-out: TR_FRET EKI_Bcl2 D103Y. The procedure: as §1, §2, §3, §4, §5, §6, §7, §8, §9
In a further test the target is BCLXL WT (Homo sapiens (Human), UniProt Q07817). Briefly: TR-FRET competitive binding assay, BCLXL WT. The settings on record: for Ki: BCLXL WT, Ki determined from IC50, read-out: TR_FRET EKI BclxL; for TR_FRET EKI BCLxL/WT selectivty ratio: ratio Ki BCLxL / Ki BCL2 WT. The procedure: as §1, §2, §3, §4, §5, §6, §7, §8, §9
Chain of BCLXL WT (Q07817 other isoform, or with tags, fused parts or gaps): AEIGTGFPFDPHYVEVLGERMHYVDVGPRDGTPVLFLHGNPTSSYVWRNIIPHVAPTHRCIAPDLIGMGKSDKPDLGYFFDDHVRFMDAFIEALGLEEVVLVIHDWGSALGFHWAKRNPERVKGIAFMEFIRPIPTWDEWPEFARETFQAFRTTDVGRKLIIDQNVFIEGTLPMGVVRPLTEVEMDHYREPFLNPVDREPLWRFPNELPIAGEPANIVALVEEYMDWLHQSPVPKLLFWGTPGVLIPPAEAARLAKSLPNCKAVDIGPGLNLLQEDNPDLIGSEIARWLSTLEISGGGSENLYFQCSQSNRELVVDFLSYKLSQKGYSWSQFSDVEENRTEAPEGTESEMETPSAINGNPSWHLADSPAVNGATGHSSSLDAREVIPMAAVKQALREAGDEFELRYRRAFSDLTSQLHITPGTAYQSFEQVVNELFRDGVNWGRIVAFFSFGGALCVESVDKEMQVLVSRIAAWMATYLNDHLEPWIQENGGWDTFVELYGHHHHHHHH
The subject of another test is KMS-12-PE Bcl-2 WT. Briefly: In vitro cytotoxicity CellTiter-Glo 48 h, KMS-12-PE Bcl-2 WT. The format is cell-based. The conditions noted are these: Homo sapiens, KMS-12-PE, C50 = concentration needed to reach 50% of the cellular viability. The protocol:
(§10) KMS-12-PE (ACC 606) were purchased from the Leibniz-Institute DSMZ (Braunschweig, Germany) and were grown at 37° C. in a humidified atmosphere with […] in media recommended by the suppliers. Lentiviral particles containing Bcl-2 wild type (also named “Bcl2 WT”) and Bcl-2 mutated on G101V (also named “Bcl2 G101V”) were cloned into pcLV-CMV-DEST-IRES-TagRFP. Lentiviral particles (1×106) were mixed with Polybrene at 8 µg/ml and transduced by spinoculation for 1 h at 32° C. and incubated overnight. After 8 days, TagRFP positive-cells were sorted by FACS. BCL2 expression was monitored by immunoblotting using anti-Flag and anti-BCL2 antibodies.
(§11) Cellular viability was monitored with the cell viability assay (CellTiter-Glo®) on KMS-12-PE WT and G101V cell lines. The CellTiter-Glo® (CTG) Luminescent Cell Viability Assay (from Promega) is a homogeneous method to determine the number of viable cells in culture based on quantitation of the ATP present, which signals the presence of metabolically active cells.
(§12) Dose response of compounds are performed with 10 mM stock solutions (DMSO), 11-points curve, in a 384-well compound plate. The assay plate is prepared by stamping 40 nL from compound dilution plate of all different concentrations (e.g. 10 mM to have final […] assay test) into a cell culture microplate, using Echo acoustic liquid handling (Labcyte, Beckman). 40 μl of cell solution is added and cells are incubated with compounds for 48 h at 37° C., 5% CO2. CTG was added to the cells (according to the manufacturer instructions) and luminescence intensity was recorded using the Pherastar plate reader (BMG).
(§13) This assay provides in vitro cellular potency of the tested Bcl-2 inhibitors, measuring the C50, defined as the concentration needed to reach 50% of the cellular viability.
A general note: In ATP-based viability assays light output follows the ATP content of the culture.

For another test, the system named is KMS-12-PE Bcl-2 G101V. Description: In vitro cytotoxicity CellTiter-Glo 48 h, KMS-12-PE Bcl-2 G101V. Type of test: cell-based. The settings on record: for Ratio (G101V/WT): C50 KMS-12-PE Bcl-2 G101V over C50 KMS-12-PE Bcl-2 WT; for IC50: Homo sapiens, KMS-12-PE, 48 h, CellTiter-Glo, C50 = concentration needed to reach 50% of the cellular viability. The procedure:
as §10, §11, §12, §13

The IC50 is the point on the concentration scale where inhibition reaches its midpoint. Take `COCc1ccc(CC(=O)N2CCc3cc(-c4cc(C(=O)N(c5ccc(O)cc5)c5cc(C#N)n(C)c5C)c(C)n4C)c(C(=O)N4Cc5ccccc5C[C@H]4C)cc3C2)cc1` [Example 87, N-(5-cyano-1,2-dimethyl-1H-pyrrol-3-yl)-N-(4-hydroxyphenyl)-5-(2-{2-[4-(methoxymethyl)phenyl]acetyl}-7-[(3R)-3-methyl-1,2,3,4-tetrahydroisoquinoline-2-carbonyl]-1,2,3,4-tetrahydroisoquinolin-6-yl)-1,2-dimethyl-1H-pyrrole-3-carboxamide]: the Ki at BCL2 WT was 0.12 nM; at BCL2 G101V it was 0.5 nM; on BCL2 D103Y, 0.46 nM; on BCLXL WT it was 1.3 nM. Besides, at BCLXL WT, the “TR_FRET EKI BCLxL/WT selectivty ratio” value amounted to 10.8. In addition, the half-inhibitory concentration (IC50) in the test on KMS-12-PE Bcl-2 WT was determined as 0.0073 µM; with KMS-12-PE Bcl-2 G101V, 0.0394 µM. In the test with KMS-12-PE Bcl-2 G101V, the “Ratio (G101V/WT)” value amounted to 5.43.
As for `Cc1c(N(C(=O)c2cc(-c3cc4c(cc3C(=O)N3Cc5ccccc5C[C@H]3CN3CCC[C@@H]3C)CN(C(=O)Cc3ccc(OCCN5CCOCC5)cc3F)CC4)n(C)c2C)c2ccc(O)cc2)cc(C#N)n1C` [Example 173, N-(5-cyano-1,2-dimethylpyrrol-3-yl)-5-[2-(2-{2-fluoro-4-[2-(morpholin-4-yl)ethoxy]phenyl}acetyl)-7-{[(3S)-3-{[(2S)-2-methylpyrrolidin-1-yl]methyl}-3,4-dihydro-1H-isoquinolin-2-yl]carbonyl}-3,4-dihydro-1H-isoquinolin-6-yl]-N-(4-hydroxyphenyl)-1,2-dimethylpyrrole-3-carboxamide], the Ki at BCL2 WT was found to be 0.03 nM; at BCL2 G101V it was 0.3 nM; on BCL2 D103Y, 0.12 nM; on BCLXL WT, 4 nM. In addition, the “TR_FRET EKI BCLxL/WT selectivty ratio” value at BCLXL WT was found to be 133.3. The IC50 with KMS-12-PE Bcl-2 WT was found to be 0.0084 µM; in the test on KMS-12-PE Bcl-2 G101V, 0.0465 µM. In the test on KMS-12-PE Bcl-2 G101V, the “Ratio (G101V/WT)” value came out at 5.5095.
For `Cc1c(C(=O)N(c2ccc(O)cc2)c2cnn(C(F)F)c2)cc(-c2cc3c(cc2C(=O)N2Cc4ccccc4C[C@H]2C)CN(C(=O)Cc2ccc(OCCN4CCOCC4)cc2F)CC3)n1C` [Example 186, N-[1-(difluoromethyl)pyrazol-4-yl]-5-[2-[2-[2-fluoro-4-(2-morpholinoethoxy)phenyl]acetyl]-7-[(3R)-3-methyl-3,4-dihydro-1H-isoquinoline-2-carbonyl]-3,4-dihydro-1H-isoquinolin-6-yl]-N-(4-hydroxyphenyl)-1,2-dimethyl-pyrrole-3-carboxamide], the Ki at BCL2 WT is 0.01 nM; on BCL2 G101V, 0.2 nM; at BCL2 D103Y, 0.04 nM; on BCLXL WT, 5.3 nM. Further, the “TR_FRET EKI BCLxL/WT selectivty ratio” value at BCLXL WT stood at 410.0. In the test on KMS-12-PE Bcl-2 WT, this molecule displayed an IC50 of 0.0047 µM.
As for `COc1ncc(N(C(=O)c2cc(-c3cc4c(cc3C(=O)N3Cc5ccccc5C[C@H]3C)CN(C(=O)Cc3cccc(N5CC6(CN(C)C6)C5)c3)CC4)n(C)c2C)c2ccccc2)cc1F` [Example 198, N-(5-fluoro-6-methoxy-3-pyridyl)-1,2-dimethyl-5-[2-[2-[3-(6-methyl-2,6-diazaspiro[3.3]heptan-2-yl)phenyl]acetyl]-7-[(3R)-3-methyl-3,4-dihydro-1H-isoquinoline-2-carbonyl]-3,4-dihydro-1H-isoquinolin-6-yl]-N-phenyl-pyrrole-3-carboxamide], the Ki on BCL2 WT worked out at 0.01 nM; on BCL2 G101V, 1.4 nM; at BCL2 D103Y, 0.07 nM; at BCLXL WT, 0.6 nM. Further, the “TR_FRET EKI BCLxL/WT selectivty ratio” value at BCLXL WT worked out at 58.6. The IC50 in the test with KMS-12-PE Bcl-2 WT was 0.0349 µM.
Turning to `Cc1c(C(=O)N(c2ccccc2)c2cnn(C(F)F)c2)cc(-c2cc3c(cc2C(=O)N2Cc4ccccc4C[C@H]2C)CN(C(=O)Cc2ccc(OCCN(C)C)cc2)CC3)n1C` [Example 199, N-[1-(difluoromethyl)pyrazol-4-yl]-5-[2-[2-[4-[2-(dimethylamino)ethoxy]phenyl]acetyl]-7-[(3R)-3-methyl-3,4-dihydro-1H-isoquinoline-2-carbonyl]-3,4-dihydro-1H-isoquinolin-6-yl]-1,2-dimethyl-N-phenyl-pyrrole-3-carboxamide], the Ki came out at 0.08 nM at BCL2 WT, 4.6 nM at BCL2 G101V, 0.19 nM on BCL2 D103Y and 8.8 nM at BCLXL WT. Moreover, at BCLXL WT, the “TR_FRET EKI BCLxL/WT selectivty ratio” value stood at 116.3. Inhibition with KMS-12-PE Bcl-2 WT was half-maximal at 0.0244 µM (IC50).
On to `COc1ncc(N(C(=O)c2cc(-c3cc4c(cc3C(=O)N3Cc5ccccc5C[C@H]3C)CN(C(=O)Cc3ccc(OCCN5CCOCC5)cc3)CC4)n(C)c2C)c2ccccc2)cc1C#N` [Example 201, N-(5-cyano-6-methoxy-3-pyridyl)-1,2-dimethyl-5-[7-[(3R)-3-methyl-3,4-dihydro-1H-isoquinoline-2-carbonyl]-2-[2-[4-(2-morpholinoethoxy)phenyl]acetyl]-3,4-dihydro-1H-isoquinolin-6-yl]-N-phenyl-pyrrole-3-carboxamide], for which the Ki at BCL2 WT turned out to be 0.05 nM; on BCL2 G101V, 1.2 nM; on BCL2 D103Y, 0.09 nM; at BCLXL WT it was 16.4 nM. At BCLXL WT, the “TR_FRET EKI BCLxL/WT selectivty ratio” value is 322.5. Moreover, half-maximal inhibition in the test on KMS-12-PE Bcl-2 WT (IC50) was put at 0.0394 µM.
Molecule `Cc1c(N(C(=O)c2cc(-c3cc4c(cc3C(=O)N3Cc5ccccc5C[C@H]3C)CN(C(=O)Cc3cccc(N5CCCN(C)CC5)c3)CC4)n(C)c2C)c2ccc(O)cc2)cc(C#N)n1C` [Example 231] had an IC50 in the test with KMS-12-PE Bcl-2 WT of 0.0391 µM.
As to `Cc1c(N(C(=O)c2cc(-c3cc4c(cc3C(=O)N3Cc5ccccc5C[C@H]3C)CN(C(=O)Cc3ccc(OCCC5CCN(C)CC5)nc3)CC4)n(C)c2C)c2ccc(O)cc2)cc(C#N)n1C` [Example 232], the IC50 in the test with KMS-12-PE Bcl-2 WT was 0.0328 µM; in the test on KMS-12-PE Bcl-2 G101V, 0.0657 µM. Further, in the test on KMS-12-PE Bcl-2 G101V, the “Ratio (G101V/WT)” value is 2.0.
